In ChEMBL document CHEMBL6153122, “Antimycobacterial Activities of the Zanthoxylum leprieurii Metabolite Adubangoamide and Non-Natural Fagaramide Analogues” (2025):
≈ marks a conversion by molar mass, not a printed value.

How the values were obtained:
[1] = test system: Mycobacterium tuberculosis; experiment: Antimycobacterial activity against multidrug-resistant Mycobacterium tuberculosis 375 by microplate Alamar blue assay; assay type: functional
[2] = test system: Mycobacterium tuberculosis; experiment: Antimycobacterial activity against multidrug-resistant Mycobacterium tuberculosis 375; assay type: functional

Row | SMILES | MIC [1] | MIC [2]
1 | O=C(/C=C/c1ccc2c(c1)OCO2)NCc1ccccc1 | 667 µM (≈ 188 µg/mL) | 
2 | CN(C)c1ccc(CNC(=O)/C=C/c2ccc3c(c2)OCO3)cc1 | 3560 µM (≈ 1150 µg/mL) | 
3 | CC(C)=CCOc1ccc(/C=C/C(=O)NCC(C)C)cc1 | 1200 µM (≈ 345 µg/mL) | 
4 | O=C(/C=C/c1ccc2c(c1)OCO2)NCc1ccc(N2CCC(C(F)(F)F)CC2)cc1 | 2310 µM (≈ 1000 µg/mL) | 
5 | O=C(/C=C/c1ccc2c(c1)OCO2)NCc1ccccc1Cl | 792 µM (≈ 250 µg/mL) | 
6 | O=C(/C=C/c1ccc2c(c1)OCO2)NCc1ccc(C(F)(F)F)cc1F | 1020 µM (≈ 375 µg/mL) | 
7 | O=C(/C=C/c1ccc2c(c1)OCO2)NCc1cc(F)cc(F)c1 | 788 µM (≈ 250 µg/mL) | 
8 | O=C(/C=C/c1ccc2c(c1)OCO2)NCc1ccc(N2CCC(c3ccc(F)cc3)CC2)cc1 | 545 µM (≈ 250 µg/mL) | 
9 | COc1cccc(CNC(=O)/C=C/c2ccc3c(c2)OCO3)c1 | 803 µM (≈ 250 µg/mL) | 
10 | CC(C)CNC(=O)/C=C/c1ccc2c(c1)OCO2 [FOGARAMIDE] |  | 1010 µM (≈ 250 µg/mL)
